From ChEMBL document CHEMBL4334548, “Discovery of Isoxazole Amides as Potent and Selective SMYD3 Inhibitors” (ACS Med Chem Lett, 2020) come the findings set out here.

Converted amounts (≈) assume the structure as drawn.

A short description of series [1]: Solubility of compound by CLND method. Type of series: physicochemical.
The nature of series [2]: Volume of distribution in Sprague-Dawley rat at 1 mg/kg, iv or 5 mg/kg, po. Type of series: ADME, organism-based. Conditions: in vivo.
Series [3] can be described thus: AUC in Sprague-Dawley rat at 5 mg/kg, po. Type of series: ADME, organism-based. Conditions: in vivo.
Series [4] can be described thus: Half life in Sprague-Dawley rat at 1 mg/kg, iv or 5 mg/kg, po. As to conditions: in vivo. Type of series: ADME, organism-based.
Series [5] is described as follows: Oral bioavailability in Sprague-Dawley rat at 5 mg/kg. It counts as ADME, organism-based. Conditions: in vivo.
Series [6] can be described thus: Permeability of compound. As to conditions: not told; read-out: permeability. Type of series: ADME.

What is called kinetic solubility is solubility judged after dilution from a stock solution rather than from solid. A word on the AUC: it is concentration integrated over time. The low end stands for less exposure, the high end for more exposure. Broadly, the half-life is how long it takes for the measured level to halve. A higher half-life goes with slow loss. As for `CS(=O)(=O)N1CCC(NC(=O)c2cc(C3CC3)on2)CC1`, the kinetic solubility in series [1] came to 55 µM (≈ 17.2 µg/mL). The Vd in series [2] stood at 1.2 L/kg. In series [3], this compound came in with an AUC of 2142 ng·h/mL. Further, the half-life in series [4] was 150 min. In series [5], this compound showed an F of 79%. Moreover, the Papp in series [6] was 12 ×10⁻⁶ cm/s.
